Series [1] relates to S91 mouse Cloudman cells (cell line M3). In words: In vitro anti-proliferation assay, Cloudman melanoma cell counts. It is filed as cell-based. As to conditions: for EC50: Cloudman melanoma cells; for Anti-proliferative effect on Cloudman melanoma cells (in words): in vitro. On the procedure:
S91 mouse Cloudman cells (cell line M3) were obtained from the American Type Culture Collection. Hams F-10 medium, fetal bovine serum, and horse serum were obtained from Gibco BRL. Cloudman cells were cultured in Ham's F-10 medium supplemented with 5% horse serum, 2.5% fetal bovine serum, and 1% penicillin/streptomycin in a humidified incubator with 5% C02 at 37° C. Media were changed every second day.
Cells were plated at a concentration of ˜20,000 cells per well in Ham's F-10 medium supplemented with 5% horse serum, 2.5% fetal bovine serum and 1% penicillin/streptomycin into tissue-culture-12-well plates. Test peptides or sterile water containing 0.5% BSA (vehicle control) were added to culture medium prior to plating, and cells were allowed to adhere overnight in a humidified incubator with 5% CO2 at 37° C. Culture medium containing peptides and culture medium containing vehicle control were changed daily. For counting, cells were detached with 200 μL of 0.25% trypsin. Detachment levels were verified under a light microscope. After detachment, cell suspensions were transferred to 1.5-mL Eppendorf tubes, vigorously pipetted for uniform suspension, and cell number in 10 μL of cell suspension was counted in a hemacytometer under a light microscope.

The nature of series [2]: Hypotensive activity relative to CRH. The conditions noted are these: in vivo.
Series [3] deals with W256 rat mammary carcinoma. The conditions noted are these: 100 micrograms/kg subcutaneously twice a day for 3 days; cited from earlier work.
The test system of the next series is W256 cells. As to conditions: cited from earlier work.
Where [4] appears, read: read-out: EC50 values for CRH peptides versus Cloudman melanoma.
Setting [5] is: Cloudman cells, relative to CRH.

Entries after “also recorded” stand apart in the source; their conditions may differ. Read-outs that look alike come from different tables or passages of the source. Residues, ends and D or L forms follow the SMILES beside them.

The values that follow come from patent US7285534B2, “Corticotropin-releasing hormone analogs and their uses” (The Regents of the University of California, priority 2002, dated 2007).

As usually defined, the EC50 is the concentration at which the effect is half-maximal.

With α-helical-CRH(9-41), the “Inhibition of the anti-proliferative effect of CRH peptides by the CRH receptor antagonist” value in series [1] (Cloudman cells) is given as “inhibited”.

On to `CC[C@H](C)[C@H](NC(=O)[C@@H](NC(=O)[C@H](CCC(=O)O)NC(=O)[C@H](CCSC)NC(=O)[C@H](CC(C)C)NC(=O)[C@H](CCCCN)NC(=O)[C@H](CCCNC(=N)N)NC(=O)[C@H](CC(N)=O)NC(=O)[C@H](CO)NC(=O)[C@H](Cc1c[nH]cn1)NC(=O)[C@H](C)NC(=O)[C@H](CCC(N)=O)NC(=O)[C@H](CCC(N)=O)NC(=O)[C@H](C)NC(=O)[C@H](CC(C)C)NC(=O)[C@H](CCC(N)=O)NC(=O)[C@H](CCC(=O)O)NC(=O)[C@H](C)NC(=O)[C@H](CCCNC(=N)N)NC(=O)[C@H](C)NC(=O)[C@H](CCSC)NC(=O)[C@@H](CCC(=O)O)NC(=O)[C@H](CC(C)C)NC(=O)[C@@H](NC(=O)[C@H](CCC(=O)O)NC(=O)[C@H](CCCNC(=N)N)NC(=O)[C@H](CC(C)C)NC(=O)[C@H](CC(C)C)NC(=O)[C@H](Cc1c[nH]cn1)NC(=O)[C@H](Cc1ccccc1)NC(=O)[C@@H](NC(=O)[C@H](CC(C)C)NC(=O)[C@H](CC(=O)O)NC(=O)[C@H](CC(C)C)NC(=O)[C@H](CO)NC(=O)[C@@H](NC(=O)[C@@H]1CCCN1C(=O)[C@@H]1CCCN1C(=O)[C@H](CCC(=O)O)NC(=O)[C@H](CCC(=O)O)NC(=O)[C@@H](N)CO)[C@@H](C)CC)[C@@H](C)O)C(C)C)[C@@H](C)CC)C(N)=O` [II, [D-Glu^20]-CRH], for which, in series [2], the “Hypotensive activity relative to CRH” value is recorded as “diminished”. In series [1] (setting [4]), the concentration giving a half-maximal response (EC50) turned out to be 16 pM. Also, in series [1], the “Anti-proliferative effect on Cloudman melanoma cells (in words)” value (from here on “Anti-proliferative effect … (in words)”) is listed as “retained; also recorded: significantly inhibit proliferation”.

On to `CC[C@H](C)[C@H](NC(=O)[C@@H](NC(=O)[C@H](CC(=O)O)NC(=O)[C@H](CC(C)C)NC(=O)[C@H](CC(C)C)NC(=O)[C@H](CC(C)C)NC(=O)[C@H](CCCNC(=N)N)NC(=O)[C@H](CC(N)=O)NC(=O)[C@H](CC(N)=O)NC(=O)[C@H](C)NC(=O)[C@H](C)NC(=O)[C@H](CCC(N)=O)NC(=O)[C@H](CCC(N)=O)NC(=O)[C@H](CCCCN)NC(=O)[C@H](CCC(=O)O)NC(=O)[C@H](CCCCN)NC(=O)[C@H](CCC(=O)O)NC(=O)[C@H](CCC(N)=O)NC(=O)[C@H](CCCCN)NC(=O)[C@H](CCC(=O)O)NC(=O)[C@@H](NC(=O)[C@H](CCC(=O)O)NC(=O)[C@@H](NC(=O)[C@H](CCSC)NC(=O)[C@H](CCCCN)NC(=O)[C@H](CCCNC(=N)N)NC(=O)[C@H](CC(C)C)NC(=O)[C@H](CC(C)C)NC(=O)[C@H](CCC(=O)O)NC(=O)[C@H](CC(C)C)NC(=O)[C@H](CO)NC(=O)[C@H](CC(C)C)NC(=O)[C@H](CC(=O)O)NC(=O)[C@@H](NC(=O)[C@H](CO)NC(=O)[C@@H](NC(=O)[C@@H]1CCCN1C(=O)[C@@H]1CCCN1C(=O)CNC(=O)[C@@H]1CCC(=O)N1)[C@@H](C)CC)[C@@H](C)CC)[C@@H](C)CC)[C@@H](C)CC)[C@@H](C)O)C(N)=O` [VII, Sauvagine], for which the EC50 in series [1] (setting [4]) came to 7.8 pM. In addition, the “Anti-proliferative effect … (in words)” value in series [1] is “highly effective in suppressing proliferation”.

Consider `CC[C@H](C)[C@H](NC(=O)[C@H](CO)NC(=O)[C@H](CC(C)C)NC(=O)[C@H](CO)NC(=O)[C@@H]1CCCN1C(=O)[C@H](CC(N)=O)NC(=O)[C@@H](N)CC(=O)O)C(=O)N[C@@H](CC(=O)O)C(=O)N[C@@H](CC(C)C)C(=O)N[C@H](C(=O)N[C@@H](Cc1ccccc1)C(=O)N[C@@H](Cc1c[nH]cn1)C(=O)N[C@@H](CC(C)C)C(=O)N[C@@H](CC(C)C)C(=O)N[C@@H](CCCNC(=N)N)C(=O)N[C@H](C(=O)N[C@@H](CC(C)C)C(=O)N[C@@H](CC(C)C)C(=O)N[C@@H](CCC(=O)O)C(=O)N[C@@H](CC(C)C)C(=O)N[C@@H](C)C(=O)N[C@@H](CCCNC(=N)N)C(=O)N[C@H](C(=O)N[C@@H](CCC(N)=O)C(=O)N[C@@H](CO)C(=O)N[C@@H](CCC(N)=O)C(=O)N[C@@H](CCCNC(=N)N)C(=O)N[C@@H](CCC(=O)O)C(=O)N[C@@H](CCCNC(=N)N)C(=O)N[C@@H](C)C(=O)N[C@@H](CCC(=O)O)C(=O)N[C@@H](CCC(N)=O)C(=O)N[C@@H](CC(N)=O)C(=O)N[C@@H](CCCNC(=N)N)C(=O)N[C@H](C(=O)N[C@H](C(=O)N[C@@H](Cc1ccccc1)C(=O)N[C@@H](CC(=O)O)C(=O)N[C@@H](CO)C(=O)N[C@H](C(N)=O)C(C)C)[C@@H](C)CC)[C@@H](C)CC)[C@@H](C)O)[C@@H](C)O)[C@@H](C)O` [VI, Urocortin] (H-DNPSLSIDLTFHLLRTLLELARTQSQRERAEQNRIIFDSV-NH2), for which the EC50 in series [1] (setting [4]) was 9.5 pM. Further, the “Anti-proliferative effect … (in words)” value in series [1] is reported as “highly effective in suppressing proliferation”.

As for `CC[C@H](C)[C@H](NC(=O)[C@@H](NC(=O)[C@H](CCC(=O)O)NC(=O)[C@H](CCSC)NC(=O)[C@H](CC(C)C)NC(=O)[C@H](CCCCN)NC(=O)[C@H](CCCNC(=N)N)NC(=O)[C@H](CC(N)=O)NC(=O)[C@H](CO)NC(=O)[C@H](Cc1c[nH]cn1)NC(=O)[C@H](C)NC(=O)[C@H](CCC(N)=O)NC(=O)[C@H](CCC(N)=O)NC(=O)[C@H](C)NC(=O)[C@H](CC(C)C)NC(=O)[C@H](CCC(N)=O)NC(=O)[C@H](CCC(=O)O)NC(=O)[C@H](C)NC(=O)[C@H](CCCNC(=N)N)NC(=O)[C@H](C)NC(=O)[C@H](CCSC)NC(=O)[C@H](CCC(=O)O)NC(=O)[C@H](CC(C)C)NC(=O)[C@@H](NC(=O)[C@H](CCC(=O)O)NC(=O)[C@H](CCCNC(=N)N)NC(=O)[C@H](CC(C)C)NC(=O)[C@H](CC(C)C)NC(=O)[C@H](Cc1c[nH]cn1)NC(=O)[C@H](Cc1ccccc1)NC(=O)[C@@H](NC(=O)[C@H](CC(C)C)NC(=O)[C@H](CC(=O)O)NC(=O)[C@H](CC(C)C)NC(=O)[C@H](CO)NC(=O)[C@@H](NC(=O)[C@H]1CCCN1C(=O)[C@@H]1CCCN1C(=O)[C@H](CCC(=O)O)NC(=O)[C@H](CCC(=O)O)NC(=O)[C@@H](N)CO)[C@@H](C)CC)[C@@H](C)O)C(C)C)[C@@H](C)CC)C(N)=O` [III, [D-Pro^5]-CRH], the “EC50 fold greater than CRH” value in series [1] (setting [5]) came to 10 fold. Further, the EC50 in series [1] (setting [4]) was 82 pM.

Regarding “acetyl-cyclo (30-33)[D-Phe^12, Nle^18, D-Glu^20, Nle^21, Glu^30, D-Ala^32]-urotensin 1(4-41) [Peptide V]”, the “EC50 fold lower than that of CRH” value in series [1] (setting [5]) was determined as 10 fold. For the same compound, the “Anti-proliferative effect … (in words)” value in series [1] is on record as “highly effective in suppressing proliferation”.

As to `CC[C@H](C)[C@H](NC(=O)[C@@H](NC(=O)[C@H](CCC(=O)O)NC(=O)[C@H](CCSC)NC(=O)[C@H](CC(C)C)NC(=O)[C@H](CCCCN)NC(=O)[C@H](CCCNC(=N)N)NC(=O)[C@H](CC(N)=O)NC(=O)[C@H](CO)NC(=O)[C@H](Cc1c[nH]cn1)NC(=O)[C@H](C)NC(=O)[C@H](CCC(N)=O)NC(=O)[C@H](CCC(N)=O)NC(=O)[C@H](C)NC(=O)[C@H](CC(C)C)NC(=O)[C@H](CCC(N)=O)NC(=O)[C@H](CCC(=O)O)NC(=O)[C@H](C)NC(=O)[C@H](CCCNC(=N)N)NC(=O)[C@H](C)NC(=O)[C@H](CCSC)NC(=O)[C@H](CCC(=O)O)NC(=O)[C@H](CC(C)C)NC(=O)[C@@H](NC(=O)[C@H](CCC(=O)O)NC(=O)[C@H](CCCNC(=N)N)NC(=O)[C@H](CC(C)C)NC(=O)[C@H](CC(C)C)NC(=O)[C@H](Cc1c[nH]cn1)NC(=O)[C@H](Cc1ccccc1)NC(=O)[C@@H](NC(=O)[C@H](CC(C)C)NC(=O)[C@H](CC(=O)O)NC(=O)[C@H](CC(C)C)NC(=O)[C@H](CO)NC(=O)[C@@H](NC(=O)[C@@H]1CCCN1C(=O)[C@@H]1CCCN1C(=O)[C@H](CCC(=O)O)NC(=O)[C@H](CCC(=O)O)NC(=O)[C@@H](N)CO)[C@@H](C)CC)[C@@H](C)O)C(C)C)[C@@H](C)CC)C(N)=O` [Peptide I, CRH], the “Inhibition of growth of intracerebrally-injected W256 tumor cells” value in series [3] is listed as “significant inhibition of growth”. For the same compound, in the series on W256 cells, the “Antiproliferative effects in in vitro cultures of W256 cells” value was “exhibited antiproliferative effects”. In addition, the “Time of maximum suppression of proliferation after treatment” value in series [1] (Cloudman cells) was “about 96 hr”. Moreover, the EC50 in series [1] (96 hr, read-out: EC50 of CRH after 96 hr) came out at 9 pM; in series [1] (setting [4]), 8.6 pM. Moreover, the “Anti-proliferative effect … (in words)” value in series [1] was “Significant anti-proliferative effects”.
